≈ marks a conversion by molar mass, not a printed value. Calls of active or inactive are those of the source. The calls are words filed in the database; no cut-off is given here.
Key:
[1] = molecular target: Luciferin 4-monooxygenase (Photinus pyralis) (UniProt P08659); assay: Inhibition of firefly luciferase activity in HEK293T cells co-expressing human Gal4-DBD fused RXRbeta LBD after 12 to 14 hrs by luminescence assay; format: cell-based
[2] = molecular target: Luciferin 4-monooxygenase (Photinus pyralis) (UniProt P08659); assay: Inhibition of firefly luciferase activity in HEK293T cells co-expressing human Gal4-DBD fused RXRalpha LBD after 12 to 14 hrs by luminescence assay; format: cell-based
[3] = molecular target: Luciferin 4-monooxygenase (Photinus pyralis) (UniProt P08659); assay: Inhibition of firefly luciferase activity in HEK293T cells co-expressing human Gal4-DBD fused RXRgamma LBD after 12 to 14 hrs by luminescence assay; format: cell-based
[4] = Aqueous solubility of the compound after 24 hrs by HPLC analysis; format: physicochemical; conditions: water
[5] = Lipophilicity, log P of the compound by HPLC analysis; format: physicochemical
[6] = molecular target: T1, Retinoid X receptor (Homo sapiens) (UniProt P28702+P48443+P19793); assay: Agonist activity at RXR in human HepG2 cells assessed as induction of ANGPTL4 mRNA expression at 1 to 10 uM after 8 hrs by RT-PCR analysis; format: cell-based
[7] = molecular target: T2, Retinoic acid receptor RXR-gamma (Homo sapiens, UniProt P48443); assay: Agonist activity at human Gal4-DBD fused RXRgamma LBD expressed in HEK293T cells after 12 to 14 hrs by luciferase reporter gene assay; format: cell-based; conditions: read-out: EC50
T2 sequence (P48443 whole entry): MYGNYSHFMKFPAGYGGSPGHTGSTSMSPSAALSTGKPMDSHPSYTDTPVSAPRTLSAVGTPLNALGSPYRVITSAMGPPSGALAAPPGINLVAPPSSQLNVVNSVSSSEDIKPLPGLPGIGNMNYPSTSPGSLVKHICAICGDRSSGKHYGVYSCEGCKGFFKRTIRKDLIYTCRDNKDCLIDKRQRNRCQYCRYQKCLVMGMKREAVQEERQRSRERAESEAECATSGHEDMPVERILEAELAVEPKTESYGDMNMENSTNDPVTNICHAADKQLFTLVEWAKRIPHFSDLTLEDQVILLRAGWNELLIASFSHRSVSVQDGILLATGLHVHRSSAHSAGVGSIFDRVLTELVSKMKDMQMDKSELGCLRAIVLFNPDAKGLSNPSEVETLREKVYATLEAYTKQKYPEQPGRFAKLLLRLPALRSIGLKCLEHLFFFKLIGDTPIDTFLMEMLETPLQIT

[8] = molecular target: T3, Retinoic acid receptor RXR-alpha (Homo sapiens, UniProt P19793); assay: Binding affinity to human RXRalpha LBD by ITC
T3 sequence (P19793 whole entry): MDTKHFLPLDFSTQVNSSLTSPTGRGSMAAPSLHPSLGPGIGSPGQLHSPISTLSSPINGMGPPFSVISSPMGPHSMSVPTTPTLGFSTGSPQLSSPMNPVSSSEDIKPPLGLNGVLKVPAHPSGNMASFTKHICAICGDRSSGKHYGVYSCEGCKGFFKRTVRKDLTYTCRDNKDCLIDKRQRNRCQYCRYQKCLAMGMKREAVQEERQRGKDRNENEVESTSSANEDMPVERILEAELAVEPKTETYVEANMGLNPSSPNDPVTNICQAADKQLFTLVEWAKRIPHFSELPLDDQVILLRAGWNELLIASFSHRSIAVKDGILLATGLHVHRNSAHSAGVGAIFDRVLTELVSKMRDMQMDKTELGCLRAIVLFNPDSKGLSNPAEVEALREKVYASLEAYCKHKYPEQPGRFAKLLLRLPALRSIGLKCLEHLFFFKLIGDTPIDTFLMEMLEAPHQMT

HepG2 = assay: Cytotoxicity against human HepG2 cells up to 100 uM after 48 hrs by WST1 assay; format: cell-based; conditions: hepg2, 48 h
[9] = molecular target: T4, Retinoic acid receptor RXR-alpha (Homo sapiens) (UniProt P19793); assay: Agonist activity at human Gal4-DBD fused RXRalpha LBD expressed in HEK293T cells after 12 to 14 hrs by luciferase reporter gene assay relative to bexarotene; format: cell-based
T4 sequence (whole entry): T3 sequence (P19793 whole entry)

[10] = molecular target: T1, Retinoid X receptor (Homo sapiens); assay: Agonist activity at RXR in human HepG2 cells assessed as induction of APOE mRNA expression at 1 to 10 uM after 8 hrs by RT-PCR analysis; format: cell-based
[11] = molecular target: T3, Retinoic acid receptor RXR-alpha; assay: Agonist activity at human Gal4-DBD fused RXRalpha LBD expressed in HEK293T cells after 12 to 14 hrs by luciferase reporter gene assay; format: cell-based; conditions: read-out: EC50
[12] = Agonist activity at full length human PPARgamma-RXR expressed in HEK293T cells co-expressing PPRE1-pGL3 after 12 to 14 hrs by luciferase reporter gene assay; format: cell-based; conditions: HEK-293T
[13] = molecular target: T1, Retinoid X receptor (Homo sapiens); assay: Agonist activity at RXR in human HepG2 cells assessed as induction of ADIPOQ mRNA expression at 1 to 10 uM after 8 hrs by RT-PCR analysis; format: cell-based
[14] = molecular target: T5, Retinoic acid receptor RXR-beta (Homo sapiens, UniProt P28702); assay: Agonist activity at human Gal4-DBD fused RXRbeta LBD expressed in HEK293T cells after 12 to 14 hrs by luciferase reporter gene assay; format: cell-based; conditions: read-out: EC50
T5 sequence (P28702 whole entry): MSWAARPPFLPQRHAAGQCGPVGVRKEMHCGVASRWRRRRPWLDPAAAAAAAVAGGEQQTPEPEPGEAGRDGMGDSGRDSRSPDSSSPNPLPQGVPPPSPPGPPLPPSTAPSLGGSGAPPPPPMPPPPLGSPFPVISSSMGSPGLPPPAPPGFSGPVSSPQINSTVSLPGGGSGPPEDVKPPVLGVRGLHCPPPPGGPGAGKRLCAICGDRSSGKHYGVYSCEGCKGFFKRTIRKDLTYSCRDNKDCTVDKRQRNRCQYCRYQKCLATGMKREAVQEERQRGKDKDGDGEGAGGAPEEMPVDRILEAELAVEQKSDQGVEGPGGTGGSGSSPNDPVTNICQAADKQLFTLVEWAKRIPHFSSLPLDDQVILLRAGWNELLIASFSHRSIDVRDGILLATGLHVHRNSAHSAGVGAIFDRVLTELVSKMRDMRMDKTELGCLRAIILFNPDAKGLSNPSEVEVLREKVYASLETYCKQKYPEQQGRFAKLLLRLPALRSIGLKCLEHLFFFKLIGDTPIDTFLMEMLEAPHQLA

Homo sapiens [15] = species on record: Homo sapiens; assay: Synergistic agonist activity at full length human RXR-LXR expressed in HEK293T cells co-expressing ABCA1-pGL3 at 1 uM after 12 to 14 hrs in presence of T090 by luciferase reporter gene assay; format: cell-based
[16] = molecular target: T6, Retinoic acid receptor RXR-gamma (Homo sapiens) (UniProt P48443); assay: Agonist activity at human Gal4-DBD fused RXRgamma LBD expressed in HEK293T cells after 12 to 14 hrs by luciferase reporter gene assay relative to bexarotene; format: cell-based
T6 sequence (whole entry): T2 sequence (P48443 whole entry)

Homo sapiens [17] = species on record: Homo sapiens; assay: Agonist activity at full length human RXR-LXR expressed in HEK293T cells co-expressing ABCA1-pGL3 at 1 uM after 12 to 14 hrs by luciferase reporter gene assay; format: cell-based
[18] = molecular target: T7, Retinoic acid receptor RXR-beta (Homo sapiens) (UniProt P28702); assay: Agonist activity at human Gal4-DBD fused RXRbeta LBD expressed in HEK293T cells after 12 to 14 hrs by luciferase reporter gene assay relative to bexarotene; format: cell-based
T7 sequence (whole entry): T5 sequence (P28702 whole entry)

[19] = Synergistic agonist activity at full length human PPARgamma-RXR expressed in HEK293T cells co-expressing PPRE1-pGL3 after 12 to 14 hrs in presence of rosiglitazone by luciferase reporter gene assay; format: cell-based; conditions: HEK-293T
[20] = molecular target: T7, Retinoic acid receptor RXR-beta (Homo sapiens); assay: Agonist activity at human Gal4-DBD fused RXRbeta LBD expressed in HEK293T cells at 30 uM after 12 to 14 hrs by luciferase reporter gene assay; format: cell-based
[21] = molecular target: T6, Retinoic acid receptor RXR-gamma (Homo sapiens); assay: Agonist activity at human Gal4-DBD fused RXRgamma LBD expressed in HEK293T cells at 30 uM after 12 to 14 hrs by luciferase reporter gene assay; format: cell-based
[22] = molecular target: T4, Retinoic acid receptor RXR-alpha (Homo sapiens); assay: Agonist activity at human Gal4-DBD fused RXRalpha LBD expressed in HEK293T cells at 30 uM after 12 to 14 hrs by luciferase reporter gene assay; format: cell-based
[23] = molecular target: T8, Retinoic acid receptor alpha (Homo sapiens) (UniProt P10276); assay: Agonist activity at human Gal4-DBD fused RARalpha LBD expressed in HEK293T cells at 30 uM after 12 to 14 hrs by luciferase reporter gene assay; format: cell-based
T8 sequence (whole entry): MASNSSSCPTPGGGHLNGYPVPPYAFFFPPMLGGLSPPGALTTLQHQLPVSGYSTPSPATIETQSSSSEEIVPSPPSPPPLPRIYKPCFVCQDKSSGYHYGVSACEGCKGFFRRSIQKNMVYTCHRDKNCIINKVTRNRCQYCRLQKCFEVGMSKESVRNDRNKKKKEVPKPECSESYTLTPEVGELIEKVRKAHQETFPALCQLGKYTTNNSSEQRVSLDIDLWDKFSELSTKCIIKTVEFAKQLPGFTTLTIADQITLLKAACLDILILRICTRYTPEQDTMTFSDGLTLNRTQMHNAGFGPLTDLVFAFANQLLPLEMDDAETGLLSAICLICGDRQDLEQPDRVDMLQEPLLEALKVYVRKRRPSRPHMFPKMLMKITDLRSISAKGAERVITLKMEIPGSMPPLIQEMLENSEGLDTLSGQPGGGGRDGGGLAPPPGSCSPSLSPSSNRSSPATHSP

[24] = molecular target: T4, Retinoic acid receptor RXR-alpha (Homo sapiens); assay: Agonist activity at human Gal4-DBD fused RXRalpha LBD expressed in HEK293T cells at 10 uM after 12 to 14 hrs by luciferase reporter gene assay; format: cell-based
[25] = molecular target: T9, Retinoic acid receptor gamma (Homo sapiens) (UniProt P13631); assay: Agonist activity at human Gal4-DBD fused RARgamma LBD expressed in HEK293T cells at 30 uM after 12 to 14 hrs by luciferase reporter gene assay; format: cell-based
T9 sequence (whole entry): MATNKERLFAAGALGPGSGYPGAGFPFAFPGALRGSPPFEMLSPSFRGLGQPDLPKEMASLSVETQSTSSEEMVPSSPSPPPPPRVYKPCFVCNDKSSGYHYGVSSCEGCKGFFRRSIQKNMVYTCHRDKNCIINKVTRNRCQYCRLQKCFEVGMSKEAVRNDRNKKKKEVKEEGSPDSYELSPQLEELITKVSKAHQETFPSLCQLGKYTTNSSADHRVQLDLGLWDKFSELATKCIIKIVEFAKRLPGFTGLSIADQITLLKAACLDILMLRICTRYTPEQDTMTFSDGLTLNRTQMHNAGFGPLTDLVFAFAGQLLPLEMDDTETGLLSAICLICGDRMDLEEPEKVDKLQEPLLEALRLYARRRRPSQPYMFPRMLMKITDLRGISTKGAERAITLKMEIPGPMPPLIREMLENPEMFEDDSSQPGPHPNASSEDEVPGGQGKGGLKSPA

[26] = molecular target: T10, Retinoic acid receptor beta (Homo sapiens) (UniProt P10826); assay: Agonist activity at human Gal4-DBD fused RARbeta LBD expressed in HEK293T cells at 30 uM after 12 to 14 hrs by luciferase reporter gene assay; format: cell-based
T10 sequence (whole entry): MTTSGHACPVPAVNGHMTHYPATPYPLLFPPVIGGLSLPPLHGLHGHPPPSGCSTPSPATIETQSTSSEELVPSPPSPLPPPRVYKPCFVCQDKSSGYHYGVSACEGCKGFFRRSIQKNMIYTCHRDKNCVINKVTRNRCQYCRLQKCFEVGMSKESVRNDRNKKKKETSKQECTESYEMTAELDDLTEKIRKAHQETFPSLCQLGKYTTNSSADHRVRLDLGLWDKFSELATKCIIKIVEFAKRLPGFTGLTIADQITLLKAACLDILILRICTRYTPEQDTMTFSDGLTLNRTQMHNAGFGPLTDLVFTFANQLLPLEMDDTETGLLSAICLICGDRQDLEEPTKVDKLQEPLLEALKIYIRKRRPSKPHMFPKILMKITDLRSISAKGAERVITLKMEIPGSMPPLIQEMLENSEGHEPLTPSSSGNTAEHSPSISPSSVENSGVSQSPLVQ

Sequence of Luciferin 4-monooxygenase (Photinus pyralis) (P08659 whole entry, the tested form may be a part): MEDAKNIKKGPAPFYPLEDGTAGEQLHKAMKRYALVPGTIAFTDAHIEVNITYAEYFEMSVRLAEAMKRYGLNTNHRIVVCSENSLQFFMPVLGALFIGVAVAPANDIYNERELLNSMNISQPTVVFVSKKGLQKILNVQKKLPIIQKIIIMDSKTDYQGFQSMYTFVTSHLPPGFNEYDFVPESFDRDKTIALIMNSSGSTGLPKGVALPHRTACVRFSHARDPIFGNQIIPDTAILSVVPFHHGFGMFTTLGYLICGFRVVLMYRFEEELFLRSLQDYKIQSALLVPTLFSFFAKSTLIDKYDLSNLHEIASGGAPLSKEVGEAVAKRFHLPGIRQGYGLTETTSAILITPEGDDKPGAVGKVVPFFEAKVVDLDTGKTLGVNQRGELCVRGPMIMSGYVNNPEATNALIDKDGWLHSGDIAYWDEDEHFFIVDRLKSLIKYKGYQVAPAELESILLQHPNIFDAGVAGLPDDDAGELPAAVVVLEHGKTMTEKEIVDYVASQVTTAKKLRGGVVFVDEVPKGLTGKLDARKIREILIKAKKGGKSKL

O=C(O)c1cccc(COc2ccc3c(c2)CCC3)c1
inhibition [1]: Active
inhibition [2]: Active
inhibition [3]: Active

O=C(O)c1ccc(COc2ccccc2-c2ccccc2)cc1
solubility at 24 h [4]: 1.31 µg/mL (≈ 4.3 µM)
logP ([5]; read-out: logP): 2.03
Activity [6]: Active
EC50 [7]: 1.6 µM
Kd [8]: 0.095 µM
Activity (HepG2): Non-Toxic
Emax [9]: 70%
Activity [10]: Active
EC50 [11]: 0.28 µM
EC50 [12]: 1 µM
Activity [13]: Active
EC50 [14]: 0.31 µM
Activity (Homo sapiens [15]): Active
Emax [16]: 94%
Activity (Homo sapiens [17]): Active
Emax [18]: 44%
EC50 [19]: 0.47 µM

O=C(O)c1ccc(C(=O)Nc2ccc3c(c2)CCC3)cc1
Activity [20]: inactive
Activity [21]: inactive
Activity [22]: inactive

C=C(c1ccc(C(=O)O)cc1)c1cc2c(cc1C)C(C)(C)CCC2(C)C [BEXAROTENE]
solubility at 24 h [4]: 0.31 µg/mL (≈ 0.89 µM)
logP [5]: 5.2
Activity (HepG2): Non-Toxic

O=C(O)c1ccc(COc2ccc3c(c2)CCC3)cc1
Activity [23]: Active
EC50 [7]: 17 µM
Activity (HepG2): Non-Toxic
Emax [9]: 29%
Activity [24]: Active
Activity [25]: Active
Activity [26]: Active
EC50 [11]: 6.7 µM
EC50 [14]: 8.8 µM
Emax [16]: 5%
Emax [18]: 28%
